Laboratory results from ChEMBL document CHEMBL1781894, “Dibenzocyclooctadiene lignans with antineurodegenerative potential from Kadsura ananosma” (2011).

What was measured:
SH-SY5Y [1] = experiment: Neuroprotective activity against H2O2-induced neurotoxicity in human SH-SY5Y cells assessed as cell survival at 1 uM incubated for 2 hrs before H2O2 challenge measured after 24 hrs by MTT assay; assay type: functional; settings: for viability at 1 µM: Homo sapiens, SH-SY5Y, read-out: Activity
SH-SY5Y [2] = experiment: Neuroprotective activity against H2O2-induced neurotoxicity in human SH-SY5Y cells assessed as cell survival at 10 uM incubated for 2 hrs before H2O2 challenge measured after 24 hrs by MTT assay; assay type: functional; settings: for viability at 10 µM: Homo sapiens, SH-SY5Y, read-out: Activity

Structure (SMILES)	viability at 1 µM (SH-SY5Y [1])	viability at 10 µM (SH-SY5Y [2])	Activity (SH-SY5Y [1])	Activity (SH-SY5Y [2])
CCC(=O)O[C@H]1c2cc3c(c(OC)c2-c2c(cc(OC)c(OC)c2OC)[C@H](OC(C)=O)[C@@H](C)[C@H]1C)OCO3 [ANANOLIGNAN G]	57.7%	56.7%	–	–
COc1cc2c(c(OC)c1OC)-c1c(cc3c(c1OC)OCO3)[C@H](OC(C)=O)[C@H](C)[C@H](C)[C@@H]2O [ANANOLIGNAN D]	64.3%	63%	–	–
COc1cc2c(c(OC)c1OC)-c1c(cc3c(c1OC)OCO3)[C@H](OC(C)=O)[C@H](C)[C@H](C)[C@H]2OC(C)=O [ANANOLIGNAN F]	90%	88.6%	–	–
COc1cc2c(c(OC)c1OC)-c1c(cc3c(c1OC)OCO3)[C@@H](OC(C)=O)[C@@H](C)[C@H](C)C2=O [ANANOLIGNAN B]	59.7%	69.6%	–	–
COc1cc2c(c(OC)c1OC)-c1c(cc3c(c1OC)OCO3)[C@H](O)[C@@H](C)[C@@H](C)C2 [YUNNANKADSURIN B]	41.7%	60.1%	–	–
CCC(C)C(=O)O[C@H]1c2cc3c(c(OC)c2-c2c(cc(OC)c(OC)c2OC)[C@H](OC(C)=O)[C@@H](C)[C@H]1C)OCO3 (stereo partly drawn) [ANANOLIGNAN J]	52.2%	55.1%	–	–
COc1cc2c(c(OC)c1OC)-c1c(cc3c(c1OC)OCO3)[C@H](O)[C@H](C)[C@H](C)C2 [ISOGOMISIN O]	56.9%	56.7%	–	–
COc1cc2c(c(OC)c1OC)-c1c(cc3c(c1OC)OCO3)[C@H](O)[C@H](C)[C@H](C)[C@H]2OC(C)=O [ANANOLIGNAN E]	62%	56.3%	–	–
C/C=C(/C)C(=O)O[C@H]1c2cc(OC)c(OC)c(OC)c2-c2c(cc3c(c2OC)OCO3)[C@H](OC(=O)C(C)C)[C@H](C)[C@@H]1C [ANANOLIGNAN M]	74%	64.5%	–	–
C/C=C(/C)C(=O)O[C@H]1c2cc(OC)c(OC)c(OC)c2-c2c(cc3c(c2OC)OCO3)[C@H](OC(C)=O)[C@H](C)[C@@H]1C [INTERIOTHERIN C]	45.7%	53.6%	–	–
CCCC(=O)O[C@H]1c2cc3c(c(OC)c2-c2c(cc(OC)c(OC)c2OC)[C@H](OC(C)=O)[C@@H](C)[C@H]1C)OCO3 [ANANOLIGNAN I]	61.1%	60.1%	–	–
COc1cc2c(c(OC)c1OC)-c1c(cc3c(c1OC)OCO3)[C@H](O)[C@H](C)[C@H](C)[C@@H]2O [ANANOLIGNAN C]	57.7%	59.6%	–	–
COc1cc2c(c(OC)c1OC)-c1c(cc3c(c1OC)OCO3)[C@H](OC(C)=O)[C@H](C)[C@H](C)C2 (stereo in doubt; 16) [KADSURIN]	–	–	56.3%	49.7%
C/C=C(/C)C(=O)O[C@H]1c2cc(OC)c(OC)c(OC)c2-c2c(cc3c(c2OC)OCO3)[C@H](OC(=O)CCC)[C@H](C)[C@@H]1C [ANANOLIGNAN N]	75%	66.8%	–	–
COc1cc2c(c(OC)c1OC)-c1c(cc3c(c1OC)OCO3)[C@H](OC(C)=O)[C@H](C)[C@H](C)C2 (stereo in doubt; 1) [KADSURIN]	58.9%	51.7%	–	–
C/C=C(\C)C(=O)O[C@H]1c2cc(OC)c(OC)c(OC)c2-c2c(cc3c(c2OC)OCO3)[C@H](OC(C)=O)[C@H](C)[C@@H]1C [ANANOLIGNAN L]	79.2%	66.9%	–	–
COc1cc2c(c(OC)c1OC)-c1c(cc3c(c1OC)OCO3)[C@H](OC(=O)C(C)C)[C@H](C)[C@H](C)[C@H]2OC(C)=O [ANANOLIGNAN H]	64.1%	63.9%	–	–
C/C=C(\C)C(=O)O[C@H]1c2cc(OC)c(OC)c(OC)c2-c2c(cc3c(c2OC)OCO3)[C@H](O)[C@H](C)[C@@H]1C [ANANOSIN A]	66.4%	68.2%	–	–
COc1cc2c(c(OC)c1OC)-c1c(cc3c(c1OC)OCO3)[C@H](OC(=O)c1ccccc1)[C@H](C)[C@H](C)[C@H]2OC(C)=O [ANANOLIGNAN K]	68.9%	71.4%	–	–
